Consider one compound from US20050245399A1, “Pyrazole derivatives as herbicidal compositions containing them” (ISHIHARA SANGYO KAISHA, LTD., priority 2004, published 2005).

The subject of one assay is barnyardgrass (Echinochloa crus-galli L.), ECHCG. The experiment in a line: Test Example 2 post-emergence (foliage treatment) herbicidal activity, ECHCG. The note with it: 63 g a.i./ha. It counts as in vivo. The source says: (§1) Upland field soil was put into a 1/170,000 ha pot, and seeds of various plants were sown. Then, when the plants reached predetermined leaf stages {1. barnyardgrass (Echinochloa crus-galli L.), ECHCG: 1.1-2.1 leaf stage, 2. crabgrass (Digitaria sanguinalis L.), DIGSA: 1.0-2.0 leaf stage, 3. green foxtail (Setaria viridis L.), SETVI: 1.0-2.2 leaf stage, 4. redroot pigweed (Amaranthus retroflexus L.), AMARE: 0.1-1.5 leaf stage, 5. prickly sida (Sida spinosa L.), SIDSP: 0.1-0.6 leaf stage, 6. velvetleaf (Abutilon theophrasti), ABUTH: 0.1-0.6 leaf stage, 7. common cocklebur (Xanthium strumarium L.), XANST: 0.1 leaf stage, 8. rice (Oryza sativa L.), ORYSA; 1.0-2 leaf stage, 9. wheat (Triticum aestivum L.), TRZAX: 2.3-3.5 leaf stage, 10. corn (Zea mays L.), ZEAMXN 2.1-2.6 leaf stage, 11. soybean (Glycine max Merr.), GLXMA: primary leaf stage}, a wettable powder or emulsifiable concentrate having the compound of the present invention formulated in accordance with a usual formulation method, was weighed so that the active ingredient would be a predetermined amount, and diluted with water in an amount of 500 L/ha. To the diluted solution, 0.1% (v/v) of an agricultural spreader was added. The herbicide adjusted was applied by a small size sprayer for foliage treatment. On the 20th to 23rd day after the application of the herbicide, the growth of the respective plants was visually observed, and the herbicidal effects were evaluated by growth controlling degrees (%) ranging from 0 (equivalent to the untreated control) to 100 (complete kill), whereby the results shown in Table 5, were obtained. Compound Nos. in Table 5 correspond to Compound Nos. in Table 1 and 2 given hereinbefore.
For the compound `COc1c(Cl)cc(F)c(-c2nn(C)c(OC(F)F)c2Cl)c1NC(=O)C=Cc1cccc(F)c1` [Compound 1-257], the “growth controlling degree, ECHCO” value amounted to 60%.

For a further assay, the system named is barnyardgrass (Echinochloa crus-galli L.): ECHCG. The experiment in a line: Test Example 1 pre-emergence herbicidal activity, ECHCG. The note with it: Rate 63 g a.i./ha, visually observed 20th to 23rd day after application. It counts as in vivo. The source says: (§2) Upland field soil was put into a 1/170,000 ha pot, and seeds of various plants {1. barnyardgrass (Echinochloa crus-galli L.): ECHCG, 2. crabgrass (Digitaria sanguinalis L.): DIGSA, 3. green foxtail (Setaria viridis L.): SETVI, 4. redroot pigweed (Amaranthus retroflexus L.): AMARE, 5. prickly sida (Sida spinosa L.): SEDSP, 6. velvetleaf (Abutilon theophrasti): ABUTH, 7. common cocklebur (Xanthium strumarium L.): XANST, 8. rice (Oryza sativa L.): ORYSA, 9. wheat (Triticum aestivum L.): TRZAX, 10. corn (Zea mays L.): ZEAMX, 11. soybean (Glycine max Merr.): GLXMA} were sown. Then, one day after the sowing, a wettable powder or emulsifiable concentrate having the compound of the present invention formulated in accordance with a usual formulation method, was weighed so that the active ingredient would be a predetermined amount and diluted with water in an amount of 500 L/ha. The herbicide adjusted was applied by a small size sprayer for preemergence treatment. On the 20th to 23rd day after the application of the herbicide, the growth of the respective plants was visually observed, and the herbicidal effects were evaluated by growth controlling degrees (%) ranging from 0 (equivalent to the untreated control) to 100 (complete kill), whereby the results shown in Table 4, were obtained. Compound Nos. in Table 4 correspond to Compound Nos. in Table 1 and 2 given hereinbefore.
Take `COc1c(Cl)cc(F)c(-c2nn(C)c(OC(F)F)c2Cl)c1NC(=O)C=Cc1cccc(F)c1` [Compound 1-257]: the “Pre-emergence Herbicidal Activity ECHCG (growth controlling degree)” value was 30%.

For another assay, the system named is green foxtail (Setaria viridis L.), SETVI. The experiment in a line: Test Example 2 post-emergence (foliage treatment) herbicidal activity, SETVI. The class given is in vivo. The note with it: 63 g a.i./ha.
From the text: as §1
For the compound `COc1c(Cl)cc(F)c(-c2nn(C)c(OC(F)F)c2Cl)c1NC(=O)C=Cc1cccc(F)c1` [Compound 1-257], the “growth controlling degree, SETVI” value is 70%.

The next assay relates to rice (Oryza sativa L.), ORYSA. As to the kind of experiment: Test Example 2 post-emergence (foliage treatment) herbicidal activity, ORYSA. The class given is in vivo. The note with it: 63 g a.i./ha.
From the text: as §1
For the compound `COc1c(Cl)cc(F)c(-c2nn(C)c(OC(F)F)c2Cl)c1NC(=O)C=Cc1cccc(F)c1` [Compound 1-257], the “growth controlling degree, ORYSA” value came out at 40%.

The subject of another assay is green foxtail (Setaria viridis L.): SETVI. As to the kind of experiment: Test Example 1 pre-emergence herbicidal activity, SETVI. The note with it: Rate 63 g a.i./ha, visually observed 20th to 23rd day after application. It counts as in vivo.
From the text: as §2
Consider `COc1c(Cl)cc(F)c(-c2nn(C)c(OC(F)F)c2Cl)c1NC(=O)C=Cc1cccc(F)c1` [Compound 1-257], for which the “Pre-emergence Herbicidal Activity SETVI (growth controlling degree)” value was found to be 10%.

The next assay relates to prickly sida (Sida spinosa L.): SEDSP. As to the kind of experiment: Test Example 1 pre-emergence herbicidal activity, SIDSP. The note with it: Rate 63 g a.i./ha, visually observed 20th to 23rd day after application. It counts as in vivo.
From the text: as §2
Regarding `COc1c(Cl)cc(F)c(-c2nn(C)c(OC(F)F)c2Cl)c1NC(=O)C=Cc1cccc(F)c1` [Compound 1-257], the “Pre-emergence Herbicidal Activity SIDSP (growth controlling degree)” value is listed as 60%.

The next assay relates to prickly sida (Sida spinosa L.), SIDSP. The experiment in a line: Test Example 2 post-emergence (foliage treatment) herbicidal activity, SIDSP. The class given is in vivo. The note with it: 63 g a.i./ha.
From the text: as §1
Take `COc1c(Cl)cc(F)c(-c2nn(C)c(OC(F)F)c2Cl)c1NC(=O)C=Cc1cccc(F)c1` [Compound 1-257]: the “growth controlling degree, SIDSP” value came to 100%.

The subject of another assay is corn (Zea mays L.), ZEAMX. The experiment in a line: Test Example 2 post-emergence (foliage treatment) herbicidal activity, ZEAMX. It counts as in vivo. The note with it: 63 g a.i./ha.
From the text: as §1
As to `COc1c(Cl)cc(F)c(-c2nn(C)c(OC(F)F)c2Cl)c1NC(=O)C=Cc1cccc(F)c1` [Compound 1-257], the “growth controlling degree, ZEAMX” value stood at 30%.

A further assay relates to wheat (Triticum aestivum L.): TRZAX. As to the kind of experiment: Test Example 1 pre-emergence herbicidal activity, TRZAX. The class given is in vivo. The note with it: Rate 63 g a.i./ha, visually observed 20th to 23rd day after application.
From the text: as §2
Regarding `COc1c(Cl)cc(F)c(-c2nn(C)c(OC(F)F)c2Cl)c1NC(=O)C=Cc1cccc(F)c1` [Compound 1-257], the “Pre-emergence Herbicidal Activity TRZAX (growth controlling degree)” value came to 0%.

Another assay has as its system rice (Oryza sativa L.): ORYSA. As to the kind of experiment: Test Example 1 pre-emergence herbicidal activity, ORYSA. It counts as in vivo. The note with it: Rate 63 g a.i./ha, visually observed 20th to 23rd day after application.
From the text: as §2
With `COc1c(Cl)cc(F)c(-c2nn(C)c(OC(F)F)c2Cl)c1NC(=O)C=Cc1cccc(F)c1` [Compound 1-257], the “Pre-emergence Herbicidal Activity ORYSA (growth controlling degree)” value worked out at 20%.

The test system of a further assay is velvetleaf (Abutilon theophrasti), ABUTH. The experiment in a line: Test Example 2 post-emergence (foliage treatment) herbicidal activity, ABUTH. It counts as in vivo. The note with it: 63 g a.i./ha.
From the text: as §1
For `COc1c(Cl)cc(F)c(-c2nn(C)c(OC(F)F)c2Cl)c1NC(=O)C=Cc1cccc(F)c1` [Compound 1-257], the “growth controlling degree, ABUTH” value stood at 100%.

The test system of another assay is wheat (Triticum aestivum L.), TRZAX. As to the kind of experiment: Test Example 2 post-emergence (foliage treatment) herbicidal activity, TRZAX. The class given is in vivo. The note with it: 63 g a.i./ha.
From the text: as §1
For the compound `COc1c(Cl)cc(F)c(-c2nn(C)c(OC(F)F)c2Cl)c1NC(=O)C=Cc1cccc(F)c1` [Compound 1-257], the “growth controlling degree, TRZAX” value worked out at 50%.

A further assay concerns soybean (Glycine max Merr.): GLXMA. As to the kind of experiment: Test Example 1 pre-emergence herbicidal activity, GLXMA. The note with it: Rate 63 g a.i./ha, visually observed 20th to 23rd day after application. It counts as in vivo.
From the text: as §2
Turning to `COc1c(Cl)cc(F)c(-c2nn(C)c(OC(F)F)c2Cl)c1NC(=O)C=Cc1cccc(F)c1` [Compound 1-257], the “Pre-emergence Herbicidal Activity GLXMA (growth controlling degree)” value stood at 0%.

The test system of a further assay is crabgrass (Digitaria sanguinalis L.): DIGSA. The experiment in a line: Test Example 1 pre-emergence herbicidal activity, DIGSA. It counts as in vivo. The note with it: Rate 63 g a.i./ha, visually observed 20th to 23rd day after application.
From the text: as §2
Turning to `COc1c(Cl)cc(F)c(-c2nn(C)c(OC(F)F)c2Cl)c1NC(=O)C=Cc1cccc(F)c1` [Compound 1-257], the “Pre-emergence Herbicidal Activity DIGSP (growth controlling degree)” value turned out to be 10%.

Another assay relates to velvetleaf (Abutilon theophrasti): ABUTH. The experiment in a line: Test Example 1 pre-emergence herbicidal activity, ABUTH. The class given is in vivo. The note with it: Rate 63 g a.i./ha, visually observed 20th to 23rd day after application.
From the text: as §2
As for `COc1c(Cl)cc(F)c(-c2nn(C)c(OC(F)F)c2Cl)c1NC(=O)C=Cc1cccc(F)c1` [Compound 1-257], the “Pre-emergence Herbicidal Activity ABUTH (growth controlling degree)” value is recorded as 10%.

The next assay relates to corn (Zea mays L.): ZEAMX. As to the kind of experiment: Test Example 1 pre-emergence herbicidal activity, ZEAMX. The note with it: Rate 63 g a.i./ha, visually observed 20th to 23rd day after application. It counts as in vivo.
From the text: as §2
`COc1c(Cl)cc(F)c(-c2nn(C)c(OC(F)F)c2Cl)c1NC(=O)C=Cc1cccc(F)c1` [Compound 1-257]: the “Pre-emergence Herbicidal Activity ZEAMX (growth controlling degree)” value is given as 0%.

The subject of a further assay is redroot pigweed (Amaranthus retroflexus L.): AMARE. As to the kind of experiment: Test Example 1 pre-emergence herbicidal activity, AMARE. The class given is in vivo. The note with it: Rate 63 g a.i./ha, visually observed 20th to 23rd day after application.
From the text: as §2
Turning to `COc1c(Cl)cc(F)c(-c2nn(C)c(OC(F)F)c2Cl)c1NC(=O)C=Cc1cccc(F)c1` [Compound 1-257], the “Pre-emergence Herbicidal Activity AMARE (growth controlling degree)” value is 100%.

In another assay the test system is soybean (Glycine max Merr.), GLXMA. As to the kind of experiment: Test Example 2 post-emergence (foliage treatment) herbicidal activity, GLXMA. It counts as in vivo. The note with it: 63 g a.i./ha.
From the text: as §1
Consider `COc1c(Cl)cc(F)c(-c2nn(C)c(OC(F)F)c2Cl)c1NC(=O)C=Cc1cccc(F)c1` [Compound 1-257], for which the “growth controlling degree, GLXMA” value is on record as 40%.

For the next assay, the system named is crabgrass (Digitaria sanguinalis L.), DIGSA. The experiment in a line: Test Example 2 post-emergence (foliage treatment) herbicidal activity, DIGSA. The note with it: 63 g a.i./ha. It counts as in vivo.
From the text: as §1
With `COc1c(Cl)cc(F)c(-c2nn(C)c(OC(F)F)c2Cl)c1NC(=O)C=Cc1cccc(F)c1` [Compound 1-257], the “growth controlling degree, DIGSP” value turned out to be 50%.
